Measurements from patent US10898481B2 (priority 2018, dated 2021).
Where two headings read alike, the source gives them in different places.

What was measured:
mA2a/CHO = mA2a/CHO (Mus musculus (Mouse), UniProt Q60613); assay: cAMP inhibition assay in mA2a/CHO cells, 10 μM adenosine; type: cell-based; conditions: read-out: cAMP & FLIPR IC50 (nM) mA2a;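 also: compounds preincubated 30 min at 37 °C before the adenosine challenge, then 30 min further stimulation, readout after 60 min detection reagent incubation at room temperature in 384-well plates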
Method: (§1) hA2a/CHO, hA2b/CHO, hA3/CHO and mA2a/CHO (Genscript) were plated at 5×10^3 cells/well into 384-well polystyrene plates at the day of experiment. Compounds were pre-incubated with cells for 30 min at 37° C., 5% CO2. Then 10 μM adenosine was added to the cells and incubated for 30 min at 37° C., 5% CO2. Detection reagent (CISBIO) was added and the plates were incubated for 60 min at room temperature. The signal was captured by Envision.

hA2a/CHO = hA2a/CHO (Homo sapiens (Human), UniProt P29274); assay: cAMP inhibition assay in hA2a/CHO cells, 10 μM adenosine; type: cell-based; conditions: read-out: cAMP & FLIPR IC50 (nM) hA2a;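 also: compounds added to cells 30 min ahead of adenosine, then a further 30 min at 37 °C with adenosine before cAMP detection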
Method: as §1

hA2a = hA2a (Homo sapiens (Human), UniProt P29274); assay: Radioligand binding to hA2a membrane with [3H]-CGS21680
Excerpt: The empty boxes in the tables below indicate data not collected yet.

hA2b/CHO = hA2b/CHO (Homo sapiens (Human), UniProt P29275); assay: cAMP inhibition assay in hA2b/CHO cells, 10 μM adenosine; type: cell-based; conditions: read-out: cAMP & FLIPR IC50 (nM) hA2b;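 also: cells exposed to compound 30 min at 37 °C, then stimulated with adenosine a further 30 min, cAMP read after 60 min at room temperature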
Method: as §1

[1] = target: hADORA1/CHO (hA1 expressing) cells (Homo sapiens (Human), UniProt P30542); assay: cell-based; conditions: FLIPR inhibition, 10 μM adenosine, read-out: cAMP & FLIPR IC50 (nM) hA1
Method: hADORA1/CHO (hA1 expressing) cells (Genscript) were plated at 1×10^4 cells/well into 384-well polystyrene plates one day before starting the experiment. On the day of experiment, the supernatant was discard and replaced with 40 μL of dye (FLIPR calcium 5 Assay Kit) per well and the plates were incubated for 60 mins at 37° C. plus 5% CO2. Then testing compounds were added at different concentrations for FLIPR™ inhibition assay. After a 400s incubation with compound, 10 μM adenosine was added into the cells, and the signal was captured by FLIPR.

[2] = Binding Affinity (IC50 nM) hA2a

Sequence of mA2a/CHO (Q60613 whole entry): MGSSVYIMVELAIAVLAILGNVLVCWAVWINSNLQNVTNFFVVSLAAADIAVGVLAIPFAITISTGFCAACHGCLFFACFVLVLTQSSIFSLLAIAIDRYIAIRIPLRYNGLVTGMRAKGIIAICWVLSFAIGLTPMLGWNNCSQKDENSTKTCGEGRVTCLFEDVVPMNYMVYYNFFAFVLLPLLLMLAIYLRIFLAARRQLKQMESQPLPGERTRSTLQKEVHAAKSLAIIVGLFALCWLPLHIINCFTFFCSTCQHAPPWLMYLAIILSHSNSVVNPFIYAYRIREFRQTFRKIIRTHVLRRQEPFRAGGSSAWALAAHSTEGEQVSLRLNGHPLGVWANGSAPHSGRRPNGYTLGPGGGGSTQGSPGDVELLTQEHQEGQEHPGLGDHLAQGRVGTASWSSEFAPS
Sequence of hADORA1/CHO (hA1 expressing) cells (P30542 whole entry): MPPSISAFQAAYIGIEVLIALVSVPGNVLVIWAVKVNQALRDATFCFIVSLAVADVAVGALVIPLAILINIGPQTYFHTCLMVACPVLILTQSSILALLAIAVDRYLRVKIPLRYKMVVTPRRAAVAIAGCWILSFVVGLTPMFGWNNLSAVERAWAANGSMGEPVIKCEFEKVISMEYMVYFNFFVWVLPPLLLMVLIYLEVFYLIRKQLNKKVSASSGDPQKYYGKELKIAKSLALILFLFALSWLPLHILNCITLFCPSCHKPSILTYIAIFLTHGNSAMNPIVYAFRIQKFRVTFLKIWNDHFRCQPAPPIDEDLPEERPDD
Sequence of hA2b/CHO (P29275 whole entry): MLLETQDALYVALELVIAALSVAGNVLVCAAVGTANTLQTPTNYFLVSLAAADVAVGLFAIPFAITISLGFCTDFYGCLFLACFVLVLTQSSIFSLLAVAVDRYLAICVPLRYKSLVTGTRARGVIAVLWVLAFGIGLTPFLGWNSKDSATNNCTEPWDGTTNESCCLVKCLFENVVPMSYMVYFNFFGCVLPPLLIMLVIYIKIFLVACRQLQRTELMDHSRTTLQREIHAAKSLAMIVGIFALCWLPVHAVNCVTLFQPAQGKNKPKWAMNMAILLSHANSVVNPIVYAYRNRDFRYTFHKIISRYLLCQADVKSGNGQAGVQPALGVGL
Sequence of hA2a (P29274 whole entry): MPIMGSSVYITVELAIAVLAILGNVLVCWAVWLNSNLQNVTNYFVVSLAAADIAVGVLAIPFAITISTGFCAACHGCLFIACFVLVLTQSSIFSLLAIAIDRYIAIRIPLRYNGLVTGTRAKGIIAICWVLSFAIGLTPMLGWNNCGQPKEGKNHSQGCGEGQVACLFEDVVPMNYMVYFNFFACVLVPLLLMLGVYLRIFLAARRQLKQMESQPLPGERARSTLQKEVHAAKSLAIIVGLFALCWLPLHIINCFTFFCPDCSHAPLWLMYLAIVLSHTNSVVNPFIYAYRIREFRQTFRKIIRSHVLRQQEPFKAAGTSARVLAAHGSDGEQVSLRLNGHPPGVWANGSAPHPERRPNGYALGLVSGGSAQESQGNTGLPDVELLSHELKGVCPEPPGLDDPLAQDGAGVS
Sequence of hA2a/CHO (P29274 whole entry): as above

SMILES	IC50 (mA2a/CHO)	IC50 (hA2a/CHO)	IC50 (hA2a; [2])	IC50 (hA2b/CHO)	IC50 [1]	IC50 (hA2a; read-out: Binding Affinity (IC50 nM) hA2a)
CC(NC(=O)c1nc(-c2ccc(=O)n(C)c2)c(-c2ncco2)nc1N)c1c(F)cccc1F (single isomer, unassigned) [Example 40, 3-amino-N-(1-(2,6-difluorophenyl)ethyl)-6-(1-methyl-6-oxo-1,6-dihydropyridin-3-yl)-5-(oxazol-2-yl)pyrazine-2-carboxamide]	211 nM	51 nM	5.2 nM	1350 nM	10000 nM	–
Cc1cnc2ccc(-c3nc(C(=O)NCC4CCO4)c(N)nc3-c3ncco3)cn12 (single isomer, unassigned) [Example 134]	77 nM	4.3 nM	5.5 nM	314 nM	–	–
Cc1cnc2ccc(-c3nc(C(=O)NCC4CCO4)c(N)nc3-c3ncco3)cn12 (single isomer, unassigned) [Example 135]	23 nM	2.3 nM	2 nM	182 nM	–	–
Cn1nc(-c2nc(C(=O)NCc3c(F)cccc3F)c(N)nc2-c2ncco2)ccc1=O [Example 37, 3-amino-N-(2,6-difluorobenzyl)-6-(1-methyl-6-oxo-1,6-dihydropyridazin-3-yl)-5-(oxazol-2-yl)pyrazine-2-carboxamide]	56 nM	9.3 nM	–	95 nM	28 nM	1 nM
Cc1cnc2ccc(-c3nc(C(=O)NCCn4cccn4)c(N)nc3-c3ncco3)cn12 [Example 158, N-(2-(1H-pyrazol-1-yl)ethyl)-3-amino-6-(3-methylimidazo[1,2-a]pyridin-6-yl)-5-(oxazol-2-yl)pyrazine-2-carboxamide]	3.46 nM	1.27 nM	–	167 nM	756 nM	–
COC[C@@H](C)NC(=O)c1nc(-c2ccc3ncc(C)n3c2)c(-c2ncco2)nc1N [Example 159, (R)-3-amino-N-(1-methoxypropan-2-yl)-6-(3-methylimidazo[1,2-a]pyridin-6-yl)-5-(oxazol-2-yl)pyrazine-2-carboxamide]	13.2 nM	5.31 nM	–	1640 nM	> 10000 nM	–
Cc1cnc2ccc(-c3nc(C(=O)NC[C@@H]4CC(F)(F)CN4C)c(N)nc3-c3ncco3)cn12 [Example 161, (S)-3-amino-N-((4,4-difluoro-1-methylpyrrolidin-2-yl)methyl)-6-(3-methylimidazo[1,2-a]pyridin-6-yl)-5-(oxazol-2-yl)pyrazine-2-carboxamide]	0.8 nM	0.95 nM	–	98 nM	34 nM	–
Cc1cnc2ccc(-c3nc(C(=O)NC[C@H]4CC(F)(F)CN4C)c(N)nc3-c3ncco3)cn12 [Example 162, (R)-3-amino-N-((4,4-difluoro-1-methylpyrrolidin-2-yl)methyl)-6-(3-methylimidazo[1,2-a]pyridin-6-yl)-5-(oxazol-2-yl)pyrazine-2-carboxamide]	8.12 nM	0.71 nM	–	147 nM	794 nM	–
Cc1cnc2ccc(-c3nc(C(=O)NCc4cccc(N5CC6(CCN6C)C5)n4)c(N)nc3-c3ncco3)cn12 [Example 171, 3-amino-N-[(6-[1-methyl-1,6-diazaspiro[3.3]heptan-6-yl]pyridin-2-yl)methyl]-6-[3-methylimidazo[1,2-a]pyridin-6-yl]-5-(1,3-oxazol-2-yl)pyrazine-2-carboxamide]	15 nM	1 nM	–	228 nM	589 nM	–
Cc1cnc2ccc(-c3nc(C(=O)N[C@H]4CCN(C)C4)c(N)nc3-c3ccc(F)cc3)cn12 [Example 200-2, (S)-3-amino-5-(4-fluorophenyl)-6-(3-methylimidazo[1,2-a]pyridin-6-yl)-N-(1-methylpyrrolidin-3-yl)pyrazine-2-carboxamide]	169 nM	12 nM	–	3540 nM	> 10000 nM	–
Cc1ccn(-c2nc(N)c(C(=O)NC[C@H]3CCCN3C)nc2-c2ccc3ncc(C)n3c2)n1 [Example 201-2, (R)-3-amino-5-(3-methyl-1H-pyrazol-1-yl)-6-(3-methylimidazo[1,2-a]pyridin-6-yl)-N-((1-methylpyrrolidin-2-yl)methyl)pyrazine-2-carboxamide]	519 nM	29 nM	–	> 10000 nM	> 10000 nM	–
Cc1cnc2ccc(-c3nc(C(=O)N4CC[C@@H](N(C)C)C4)c(N)nc3-c3ccc(F)cc3)cn12 [Example 203-1, (R)-(3-amino-5-(4-fluorophenyl)-6-(3-methylimidazo[1,2-a]pyridin-6-yl)pyrazin-2-yl)(3-(dimethylamino)pyrrolidin-1-yl)methanone]	161 nM	15 nM	–	> 10000 nM	91 nM	–
COC[C@H]1CCCN1C(=O)c1nc(-c2ccc3ncc(C)n3c2)c(-c2ccc(F)cc2)nc1N [Example 204-1, (R)-(3-amino-5-(4-fluorophenyl)-6-(3-methylimidazo[1,2-a]pyridin-6-yl)pyrazin-2-yl)(2-(methoxymethyl)pyrrolidin-1-yl)methanone]	249 nM	49 nM	–	> 10000 nM	294 nM	–
Cc1cnc2ccc(-c3nc(C(=O)NCCc4nccn4C)c(N)nc3-c3ncco3)cn12 [Example 205, 3-amino-N-(2-(1-methyl-1H-imidazol-2-yl)ethyl)-6-(3-methylimidazo[1,2-a]pyridin-6-yl)-5-(oxazol-2-yl)pyrazine-2-carboxamide]	7.5 nM	2 nM	–	67 nM	153 nM	–
Cc1cnc2ccc(-c3nc(C(=O)NCCN4CCCC4=O)c(N)nc3-c3ncco3)cn12 [Example 208, 3-amino-6-(3-methylimidazo[1,2-a]pyridin-6-yl)-5-(oxazol-2-yl)-N-(2-(2-oxopyrrolidin-1-yl)ethyl)pyrazine-2-carboxamide]	19 nM	8.9 nM	–	1230 nM	9540 nM	–
Cc1cnc2ccc(-c3nc(C(=O)NCCC(=O)N4CCCCC4)c(N)nc3-c3ncco3)cn12 [Example 215, 3-amino-6-(3-methylimidazo[1,2-a]pyridin-6-yl)-5-(oxazol-2-yl)-N-(3-oxo-3-(piperidin-1-yl)propyl)pyrazine-2-carboxamide]	9.6 nM	12 nM	–	568 nM	891 nM	–
CNC(=O)CCNC(=O)c1nc(-c2ccc3ncc(C)n3c2)c(-c2ncco2)nc1N [Example 225, 3-amino-N-(3-(methylamino)-3-oxopropyl)-6-(3-methylimidazo[1,2-a]pyridin-6-yl)-5-(oxazol-2-yl)pyrazine-2-carboxamide]	177 nM	32 nM	–	254 nM	> 10000 nM	–
Cc1cnc2ccc(-c3nc(C(=O)NC[C@@H]4CCCO4)c(N)nc3-n3nccn3)cn12 [Example 226, (S)-3-amino-6-(3-methylimidazo[1,2-a]pyridin-6-yl)-N-((tetrahydrofuran-2-yl)methyl)-5-(2H-1,2,3-triazol-2-yl) pyrazine-2-carboxamide]	30 nM	3 nM	–	177 nM	947 nM	–
Cc1cnc2ccc(-c3nc(C(=O)NCCN(C)c4ccccn4)c(N)nc3-c3ncco3)cn12 [Example 240, 3-amino-N-(2-(methyl(pyridin-2-yl)amino)ethyl)-6-(3-methylimidazo[1,2-a]pyridin-6-yl)-5-(oxazol-2-yl)pyrazine-2-carboxamide]	65 nM	18 nM	–	521 nM	108 nM	–
Cc1cnc2ccc(-c3nc(C(=O)NC[C@H]4CCOC4)c(N)nc3-n3nccn3)cn12 [Example 242, (R)-3-amino-6-(3-methylimidazo[1,2-a]pyridin-6-yl)-N-((tetrahydrofuran-3-yl)methyl)-5-(2H-1,2,3-triazol-2-yl) pyrazine-2-carboxamide]	51 nM	2.9 nM	–	683 nM	294 nM	–
COCCNC(=O)c1nc(-c2ccc3ncc(C)n3c2)c(-n2nccn2)nc1N [Example 243, 3-amino-N-(2-methoxyethyl)-6-(3-methylimidazo[1,2-a]pyridin-6-yl)-5-(2H-1,2,3-triazol-2-yl)pyrazine-2-carboxamide]	30 nM	7.6 nM	–	181 nM	92 nM	–
Cc1cnc2ccc(-c3nc(C(=O)NCCN(C)c4ccccc4)c(N)nc3-c3ncco3)cn12 [Example 244, 3-amino-N-(2-(methyl(phenyl)amino)ethyl)-6-(3-methylimidazo[1,2-a]pyridin-6-yl)-5-(oxazol-2-yl)pyrazine-2-carboxamide]	31 nM	16 nM	–	157 nM	260 nM	–
Cc1cnc2ccc(-c3nc(C(=O)NC4CC4)c(N)nc3-c3ncco3)cn12 [Example 245, 3-amino-N-cyclopropyl-6-(3-methylimidazo[1,2-a]pyridin-6-yl)-5-(oxazol-2-yl)pyrazine-2-carboxamide]	39 nM	3.8 nM	–	247 nM	87 nM	–
COC1CCC(NC(=O)c2nc(-c3ccc4ncc(C)n4c3)c(-c3ncco3)nc2N)CC1 (centres unmarked) [Example 249, 3-amino-N-(4-methoxycyclohexyl)-6-(3-methylimidazo[1,2-a]pyridin-6-yl)-5-(oxazol-2-yl)pyrazine-2-carboxamide]	50 nM	5.7 nM	–	423 nM	> 10000 nM	–
